Details: Liquid, Vibrating tube method

CCCC[n+]1cccc(C)c1.F[B-](F)(F)F [1-butyl-3-methylpyridinium tetrafluoroborate]
Details	mass density [kg/m3]
283.12 K, 2024 kPa	1194.21
283.13 K, 5410 kPa	1195.69
283.14 K, 10608 kPa	1197.94
283.16 K, 101 kPa	1192.91
283.16 K, 20395 kPa	1202.09
283.16 K, 29989 kPa	1206.06
283.16 K, 40399 kPa	1210.24
283.16 K, 50021 kPa	1214
283.16 K, 59880 kPa	1217.75
283.16 K, 70001 kPa	1221.48
283.16 K, 80055 kPa	1225.07
283.16 K, 89979 kPa	1228.5
283.16 K, 99226 kPa	1231.6
293.13 K, 2373 kPa	1187.65
293.15 K, 101 kPa	1185.85
293.15 K, 5192 kPa	1188.92
293.15 K, 19915 kPa	1195.44
293.15 K, 29975 kPa	1199.74
293.15 K, 40033 kPa	1203.9
293.15 K, 49990 kPa	1207.91
293.15 K, 60026 kPa	1211.82
293.15 K, 69993 kPa	1215.58
293.15 K, 90002 kPa	1222.75
293.15 K, 99008 kPa	1225.82
293.16 K, 79917 kPa	1219.2
293.17 K, 10105 kPa	1191.13
298.13 K, 101 kPa	1182.41
298.15 K, 1023 kPa	1183.65
298.15 K, 5014 kPa	1185.49
298.15 K, 10024 kPa	1187.78
298.15 K, 19956 kPa	1192.22
298.15 K, 29784 kPa	1196.48
298.15 K, 39954 kPa	1200.76
298.15 K, 49921 kPa	1204.82
298.15 K, 59784 kPa	1208.71
298.15 K, 69521 kPa	1212.43
298.15 K, 79326 kPa	1216.05
298.15 K, 89784 kPa	1219.77
298.15 K, 99965 kPa	1223.26
313.13 K, 101 kPa	1172.19
313.13 K, 10051 kPa	1177.79
313.15 K, 2471 kPa	1174.15
313.15 K, 5142 kPa	1175.44
313.15 K, 39901 kPa	1191.32
313.15 K, 50020 kPa	1195.6
313.15 K, 59990 kPa	1199.68
313.15 K, 70046 kPa	1203.63
313.15 K, 79830 kPa	1207.34
313.16 K, 30021 kPa	1186.99
313.16 K, 89989 kPa	1211.04
313.17 K, 19949 kPa	1182.42
313.17 K, 99194 kPa	1214.26
323.14 K, 101 kPa	1165.48
333.13 K, 2503 kPa	1160.47
333.14 K, 101 kPa	1158.81
333.14 K, 39760 kPa	1178.53
333.15 K, 20056 kPa	1169.28
333.15 K, 29979 kPa	1174.02
333.15 K, 79731 kPa	1195.25
333.15 K, 89986 kPa	1199.09
333.15 K, 99773 kPa	1202.59
333.16 K, 5448 kPa	1161.99
333.16 K, 50021 kPa	1183.09
333.16 K, 70003 kPa	1191.43
333.17 K, 10715 kPa	1164.66
333.17 K, 60243 kPa	1187.44
343.14 K, 101 kPa	1152.1
353.12 K, 6509 kPa	1148.81
353.13 K, 8955 kPa	1150.12
353.14 K, 2790 kPa	1146.79
353.15 K, 101 kPa	1145.3
353.15 K, 90011 kPa	1186.9
353.15 K, 99259 kPa	1190.28
353.16 K, 29979 kPa	1160.91
353.16 K, 39909 kPa	1165.7
353.16 K, 50013 kPa	1170.38
353.16 K, 60153 kPa	1174.86
353.16 K, 69979 kPa	1179.02
353.16 K, 80426 kPa	1183.23
353.17 K, 21342 kPa	1156.58
363.14 K, 101 kPa	1138.4
373.12 K, 60192 kPa	1162.13
373.13 K, 50003 kPa	1157.47
373.14 K, 39996 kPa	1152.66
373.14 K, 70039 kPa	1166.42
373.14 K, 99035 kPa	1177.8
373.15 K, 5373 kPa	1134.29
373.15 K, 29979 kPa	1147.62
373.15 K, 90014 kPa	1174.46
373.16 K, 2495 kPa	1132.64
373.16 K, 10198 kPa	1137.01
373.16 K, 20336 kPa	1142.55
373.16 K, 80221 kPa	1170.63
393.15 K, 10222 kPa	1123.08
393.15 K, 20024 kPa	1128.69
393.15 K, 30013 kPa	1134.16
393.15 K, 89993 kPa	1161.76
393.15 K, 99831 kPa	1165.43
393.16 K, 40133 kPa	1139.44
393.16 K, 49970 kPa	1144.34
393.16 K, 60110 kPa	1149.13
393.16 K, 70029 kPa	1153.57
393.16 K, 80159 kPa	1157.85
393.17 K, 2485 kPa	1118.49
393.17 K, 5300 kPa	1120.18
